Assays:
HepG2 = test: Cytotoxicity in human HepG2 cells assessed as reduction in cell viability incubated for 24 hrs by MTT assay; format: functional, cell-based; conditions: HepG2, 24 h
HeLa [1] = test: Cytotoxicity in human HeLa cells assessed as reduction in cell viability incubated for 24 hrs by MTT assay; format: functional, cell-based
[2] = Cytotoxicity in human HELF cells assessed as reduction in cell viability incubated for 24 hrs by MTT assay; format: cell-based
BGC-823 = test: Cytotoxicity in human BGC823 cells assessed as reduction in cell viability incubated for 72 hrs by MTT assay; format: functional, cell-based; conditions: BGC-823, 72 h
Bel-7402 = test: Cytotoxicity in human Bel7402 cells assessed as reduction in cell viability incubated for 72 hrs by MTT assay; format: functional, cell-based; conditions: Bel-7402, 72 h
HeLa [3] = test: Cytotoxicity in human HeLa cells assessed as reduction in cell viability incubated for 72 hrs by MTT assay; format: functional, cell-based
HT-29 [4] = test: Cytotoxicity in human HT-29 cells assessed as reduction in cell viability incubated for 72 hrs by MTT assay; format: functional, cell-based; conditions: HT-29, 72 h
HCT-116 = test: Cytotoxicity in human HCT116 cells assessed as reduction in cell viability incubated for 96 hrs by SRB assay; format: functional, cell-based; conditions: HCT-116, 96 h
HCT-8 = test: Cytotoxicity in human HCT8 cells assessed as reduction in cell viability incubated for 96 hrs by SRB assay; format: functional, cell-based; conditions: HCT-8, 96 h
HT-29 [5] = test: Cytotoxicity in human HT-29 cells assessed as reduction in cell viability incubated for 96 hrs by SRB assay; format: functional, cell-based; conditions: HT-29, 96 h
CT26 = test: Cytotoxicity in mouse CT26 cells assessed as reduction in cell viability incubated for 96 hrs by SRB assay; format: functional, cell-based; conditions: CT26, 96 h
PC-3 = test: Cytotoxicity in human PC3 cells assessed as reduction in cell viability incubated for 96 hrs by SRB assay; format: functional, cell-based; conditions: PC-3, 96 h
DU-145 = test: Cytotoxicity in human DU145 cells assessed as reduction in cell viability incubated for 96 hrs by SRB assay; format: functional, cell-based; conditions: DU-145, 96 h
MDA-MB-231 [6] = test: Cytotoxicity in human MDA-MB-231 cells assessed as reduction in cell viability incubated for 96 hrs by SRB assay; format: functional, cell-based; conditions: MDA-MB-231, 96 h
4T1 = test: Cytotoxicity in mouse 4T1 cells assessed as reduction in cell viability incubated for 96 hrs by SRB assay; format: functional, cell-based; conditions: 4T1, 96 h
MCF7 = test: Cytotoxicity in human MCF7 cells assessed as reduction in cell viability incubated for 48 hrs by SRB assay; format: functional, cell-based; conditions: MCF7, 48 h
MDA-MB-231 [7] = test: Cytotoxicity in human MDA-MB-231 cells assessed as reduction in cell viability incubated for 48 hrs by SRB assay; format: functional; conditions: MDA-MB-231, 48 h

SMILES | IC50 (HCT-116) | IC50 (HCT-8) | IC50 (HT-29 [5]) | IC50 (CT26) | IC50 (PC-3) | IC50 (DU-145) | IC50 (MDA-MB-231 [6]) | IC50 (4T1) | further results
CC(=O)O[C@H]1CC[C@]2(C)[C@H]3CC=C4[C@@H]5[C@@H](C)[C@H](C)CC[C@]5(C(=O)N5CCNCC5)CC[C@@]4(C)[C@]3(C)CC[C@H]2C1(C)C |  |  |  |  |  |  |  |  | IC50 (HepG2): 4.8 µM; IC50 (HeLa [1]): 7 µM; IC50 [2]: 9.1 µM
Cc1nc(C)c(COC(=O)[C@]23CCC(C)(C)C[C@H]2C2=CC[C@@H]4[C@@]5(C)CC[C@H](O)C(C)(C)[C@@H]5CC[C@@]4(C)[C@]2(C)CC3)nc1C |  |  |  |  |  |  |  |  | IC50 (BGC-823): > 30 µM; IC50 (Bel-7402): 6.36 µM; IC50 (HeLa [3]): 28.7 µM; IC50 (HT-29 [4]): 29.8 µM
COC(=O)[C@@]1(C)CC[C@]2(C)CC[C@]3(C)C(=CC(=O)[C@@H]4[C@@]5(C)Cc6cn(C(=O)C7CCCNC7)nc6C(C)(C)[C@@H]5CC[C@]43C)[C@H]2C1 (stereo partly drawn) | 22 µM | 23.8 µM | 21.8 µM | 23.7 µM | 23.1 µM | 21.9 µM | 24 µM | 9.68 µM | 
COC(=O)[C@@]1(C)CC[C@]2(C)CC[C@]3(C)C(=CC(=O)[C@@H]4[C@@]5(C)Cc6cn(S(C)(=O)=O)nc6C(C)(C)[C@@H]5CC[C@]43C)[C@H]2C1 | 8.7 µM | 24.5 µM | 18.5 µM | 15.2 µM | 18.9 µM | > 50 µM | 28.6 µM | 12.5 µM | 
COC(=O)[C@@]1(C)CC[C@]2(C)CC[C@]3(C)C(=CC(=O)[C@@H]4[C@@]5(C)Cc6cn(C(=O)CCCC7CCNCC7)nc6C(C)(C)[C@@H]5CC[C@]43C)[C@H]2C1 | 6.99 µM | 11.7 µM | 8.76 µM | 8.08 µM | 5.19 µM | 7.54 µM | 9.76 µM | 6.09 µM | 
COC(=O)[C@@]1(C)CC[C@]2(C)CC[C@]3(C)C(=CC(=O)[C@@H]4[C@@]5(C)Cc6c(n[nH]c6C(F)(F)F)C(C)(C)[C@@H]5CC[C@]43C)[C@H]2C1 | 11.9 µM | 20 µM | 27.6 µM | 22 µM | 19.8 µM | 33.6 µM | 27.4 µM | 15.7 µM | 
C[C@H]1[C@H](C)CC[C@]2(C(=O)N3CCNCC3)CC[C@]3(C)C(=CC[C@@H]4[C@@]5(C)CC[C@H](O)C(C)(C)[C@@H]5CC[C@]43C)[C@H]12 |  |  |  |  |  |  |  |  | IC50 (HepG2): 5.1 µM; IC50 (HeLa [1]): 14.4 µM; IC50 [2]: 12.6 µM
C[C@H]1[C@H](C)CC[C@]2(C(=O)OCCCn3cc(COC(=O)[C@]45CC[C@@H](C)[C@H](C)[C@@H]4C4=CC[C@@H]6[C@@]7(C)C[C@H](O)[C@H](O)[C@](C)(CO)[C@@H]7CC[C@]6(C)[C@]4(C)CC5)cn3)CC[C@]3(C)C(=CC[C@@H]4[C@@]5(C)CC[C@H](O)C(C)(C)[C@@H]5CC[C@]43C)[C@H]12 |  |  |  |  |  |  |  |  | GI50 (MCF7): 12.8 µM; GI50 (MDA-MB-231 [7]): 7.4 µM
C[C@H]1[C@H](C)CC[C@]2(C(=O)NCCCCCCCCN)CC[C@]3(C)C(=CC[C@@H]4[C@@]5(C)CC[C@H](O)C(C)(C)[C@@H]5CC[C@]43C)[C@H]12 |  |  |  |  |  |  |  |  | IC50 (HepG2): 26.7 µM; IC50 (HeLa [1]): 16.9 µM; IC50 [2]: 39.4 µM
COC(=O)[C@@]1(C)CC[C@]2(C)CC[C@]3(C)C(=CC(=O)[C@@H]4[C@@]5(C)Cc6cn(OC(C)=O)nc6C(C)(C)[C@@H]5CC[C@]43C)[C@H]2C1 | 14.1 µM | 29.2 µM | 31 µM | 33 µM | 25.4 µM | 36.7 µM | 32.3 µM | 20.1 µM | 
COC(=O)[C@@]1(C)CC[C@]2(C)CC[C@]3(C)C(=CC(=O)[C@@H]4[C@@]5(C)Cc6cn(C(=O)CC7CCNCC7)nc6C(C)(C)[C@@H]5CC[C@]43C)[C@H]2C1 | 12.1 µM | 8.98 µM | 12.1 µM | 9.87 µM | 11.7 µM | 13.3 µM | 10.1 µM | 5.8 µM | 
C[C@H]1[C@H](C)CC[C@]2(C(=O)OCCCn3cc(COC(=O)[C@]45CC[C@@H](C)[C@H](C)[C@@H]4C4=CC[C@@H]6[C@@]7(C)CC[C@H](O)C(C)(C)[C@@H]7CC[C@]6(C)[C@]4(C)CC5)cn3)CC[C@]3(C)C(=CC[C@@H]4[C@@]5(C)CC[C@H](O)C(C)(C)[C@@H]5CC[C@]43C)[C@H]12 |  |  |  |  |  |  |  |  | GI50 (MCF7): 12.7 µM; GI50 (MDA-MB-231 [7]): 3.8 µM
COC(=O)[C@@]1(C)CC[C@]2(C)CC[C@]3(C)C(=CC(=O)[C@@H]4[C@@]5(C)Cc6cn(C(=O)C7CCNCC7)nc6C(C)(C)[C@@H]5CC[C@]43C)[C@H]2C1 | 23.2 µM | 22.3 µM | 25.2 µM | 21.4 µM | 22.4 µM | 20.8 µM | 19.2 µM | 5.34 µM | 
CCOC(=O)c1[nH]nc2c1C[C@]1(C)[C@H]3C(=O)C=C4[C@H]5C[C@@](C)(C(=O)OCc6ccccc6)CC[C@]5(C)CC[C@@]4(C)[C@]3(C)CC[C@H]1C2(C)C | 8.2 µM | 9.96 µM | 12.5 µM | 17.7 µM | 19.6 µM | 23.8 µM | 16.6 µM | 5.75 µM | 
COC(=O)[C@@]1(C)CC[C@]2(C)CC[C@]3(C)C(=CC(=O)[C@@H]4[C@@]5(C)Cc6c[nH]nc6C(C)(C)[C@@H]5CC[C@]43C)[C@H]2C1 | 13.2 µM | 31.5 µM | 32 µM | 26.1 µM | 26.5 µM | 30.3 µM | 33.2 µM | 14.7 µM | 
COC(=O)[C@@]1(C)CC[C@]2(C)CC[C@]3(C)C(=CC(=O)[C@@H]4[C@@]5(C)Cc6cn(C(=O)CCC7CCNCC7)nc6C(C)(C)[C@@H]5CC[C@]43C)[C@H]2C1 | 6.36 µM | 13.6 µM | 12.5 µM | 13 µM | 12 µM | 13.9 µM | 9.56 µM | 5.77 µM | 
C[C@H]1[C@H](C)CC[C@]2(C(=O)OCCCn3cc(COC(=O)[C@]45CC[C@@H](C)[C@H](C)[C@@H]4C4=CC[C@@H]6[C@@]7(C)C[C@H](O)[C@H](O)C(C)(C)[C@@H]7CC[C@]6(C)[C@]4(C)CC5)cn3)CC[C@]3(C)C(=CC[C@@H]4[C@@]5(C)CC[C@H](O)C(C)(C)[C@@H]5CC[C@]43C)[C@H]12 |  |  |  |  |  |  |  |  | GI50 (MCF7): 12 µM; GI50 (MDA-MB-231 [7]): 4.7 µM
CC(=O)O[C@H]1CC[C@]2(C)[C@H]3CC=C4[C@@H]5[C@@H](C)[C@H](C)CC[C@]5(C(=O)N5CCNCC5C)CC[C@@]4(C)[C@]3(C)CC[C@H]2C1(C)C (stereo partly drawn) |  |  |  |  |  |  |  |  | IC50 (HepG2): 5.2 µM; IC50 (HeLa [1]): 6.3 µM; IC50 [2]: 14.8 µM
CC(=O)O[C@H]1CC[C@]2(C)[C@H]3CC=C4[C@@H]5[C@@H](C)[C@H](C)CC[C@]5(C(=O)NCCCCCCCCN)CC[C@@]4(C)[C@]3(C)CC[C@H]2C1(C)C |  |  |  |  |  |  |  |  | IC50 (HepG2): 17.3 µM; IC50 (HeLa [1]): 8.6 µM; IC50 [2]: 36.1 µM
CC1(C)c2n[nH]cc2C[C@]2(C)[C@H]3C(=O)C=C4[C@H]5C[C@@](C)(C(=O)OCc6ccccc6)CC[C@]5(C)CC[C@@]4(C)[C@]3(C)CC[C@@H]12 | 7.49 µM | 13.3 µM | 15.2 µM | 19.8 µM | 12.3 µM | 19 µM | 18.1 µM | 6.32 µM | 
